Test results reported in US10639299B2, “Calcium sensing receptors, ligands, compositions, and methods of use” (Georgia State University Research Foundation, Inc., priority 2016, dated 2020).

Target: T1, CaSR (Homo sapiens, UniProt P41180)
T1 sequence (P41180 20-1078): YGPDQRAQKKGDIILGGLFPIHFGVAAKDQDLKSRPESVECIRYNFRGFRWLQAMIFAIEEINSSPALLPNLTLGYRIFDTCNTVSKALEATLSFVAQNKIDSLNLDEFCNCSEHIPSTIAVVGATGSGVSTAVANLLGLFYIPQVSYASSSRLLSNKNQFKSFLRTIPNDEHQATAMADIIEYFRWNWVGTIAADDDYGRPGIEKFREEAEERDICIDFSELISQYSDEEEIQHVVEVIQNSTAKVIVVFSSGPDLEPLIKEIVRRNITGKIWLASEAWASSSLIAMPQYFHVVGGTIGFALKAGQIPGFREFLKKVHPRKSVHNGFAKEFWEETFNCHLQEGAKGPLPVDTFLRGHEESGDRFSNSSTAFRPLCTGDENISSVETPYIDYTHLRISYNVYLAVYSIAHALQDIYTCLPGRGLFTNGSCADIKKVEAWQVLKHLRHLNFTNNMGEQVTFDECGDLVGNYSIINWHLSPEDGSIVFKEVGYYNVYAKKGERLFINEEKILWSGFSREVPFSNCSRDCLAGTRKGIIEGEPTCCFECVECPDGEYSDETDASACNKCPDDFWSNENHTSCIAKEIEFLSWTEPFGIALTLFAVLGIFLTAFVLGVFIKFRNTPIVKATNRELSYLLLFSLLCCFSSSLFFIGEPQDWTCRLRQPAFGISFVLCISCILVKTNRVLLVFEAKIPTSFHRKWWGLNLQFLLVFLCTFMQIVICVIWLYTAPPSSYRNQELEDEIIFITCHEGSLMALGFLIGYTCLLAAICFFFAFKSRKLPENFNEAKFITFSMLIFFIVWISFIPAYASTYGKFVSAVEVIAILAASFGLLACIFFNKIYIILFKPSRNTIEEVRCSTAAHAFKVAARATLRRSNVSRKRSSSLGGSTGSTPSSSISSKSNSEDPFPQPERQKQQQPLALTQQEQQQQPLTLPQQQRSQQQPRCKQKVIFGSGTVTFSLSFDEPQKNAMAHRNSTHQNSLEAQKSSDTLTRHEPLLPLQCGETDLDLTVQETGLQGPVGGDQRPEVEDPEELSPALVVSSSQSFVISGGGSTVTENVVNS
Assay: [Ca^2+]i signaling (Fura-2) evoked by [Mg^2+]o/[Ca^2+]o in CaSR-expressing HEK293 cells (5001 cell population assay)
Assay type: cell-based
Parameters: expressed in transfected cells
Description: Measurement of intracellular free Ca^2+ was assessed as described by Huang, et al^33. Briefly, wild type CaSR, or its mutants, were transiently transfected into HEK293 cells grown on coverslips and cultured for 48 h. The cells were subsequently loaded for 15 min using 2 μM Fura-2 AM in 2 mL physiological saline buffer (10 mM HEPES, 140 mM NaCl, 5 mM KCl, 1.0 mM MgCl2 and pH 7.4). The coverslips were mounted in a bath chamber on the stage of a Leica DM6000 fluorescence microscope. The cells were alternately illuminated with 340 or 380 nm light, and the fluorescence at an emission wavelength 510 nm was recorded in real time as the [Ca^2+]o and/or [Mg^2+]o was increased in a stepwise manner in the presence or absence of 0.25 mM TNCA in buffer (10 mM HEPES, 155 mM NaCl, 5 mM KCl, 2 mM NaH2PO4, 0.5 mM MgCl2 and pH 7.4). The ratio of the emitted fluorescence intensities resulting from excitation at both wavelengths was utilized as a surrogate for changes in [Ca^2+]i and was further plotted and analyzed as a function of [Ca^2+]o. All experiments were performed at room temperature. The signals from 20 to 100 single cells were recorded for each measurement. Oscillations were identified as three successive fluctuations in [Ca^2+]i after the initial peak. Determination of the Effect of TNCA on Mg^2+-Evoked [Ca^2+]i Signaling by Stimulation of CaSR in Cell Populations.
Changes in the intracellular Ca^2+ concentration [Ca^2+ ]i elicited by extracellular Mg^2+ ([Mg^2+]o) in a population of cells were measured by fluorimetry as described previously^33. A cell line stably expressing CaSR (designated the “5001 cell line”) was seeded on 13.5×20-mm coverslips and cultured in DMEM. After reaching 95% confluence, cells were washed three times using loading buffer (20 mM HEPES [pH 7.4], 125 mM NaCl, 5 mM KCl, 1.25 mM CaCl2, 1 mM MgCl2, 1 mM NaH2PO4, 1% glucose, and 1% BSA) and subsequently incubated with 4 μM Fura-2 and 4 μM pluronic F127 for 20 minutes at 37° C. to enable sufficient dye loading in the same buffer. After removing the excess Fura-2, coverslips with cells were diagonally positioned in a quartz cuvette filled with 3 ml of experimental buffer (125 mM NaCl, 5 mM KCl, 0.5 mM CaCl2, 0.5 mM MgCl2, 1% glucose, and 1% BSA). Measurements of Fura-2 fluorescence at 510 nm when excited at 340 or 380 nm were performed on a QM1 fluorescence spectrophotometer (PTI). The emission ratio of 340/380 was calculated and used to reflect the changes in [Ca^2+]i when different concentrations of [Mg^2+]o were applied to the cells.
To examine the co-activation of CaSR by TNCA and [Mg^2+]o or [Ca^2+]o, different concentrations of TNCA were placed in the experimental buffer with a fixed concentration of [Ca^2+]o and varying concentrations of [Mg^2+]o, or vice versa, as described in the results section. The effects of other ligands were analyzed by comparing the changes in [Ca^2+ ]i produced by [Mg^2+]o alone or by co-application of Mg^2+ with other ligands. The EC50 of [Mg^2+]o obtained during incubation with various concentrations of TNCA is compared with that observed in the presence of [Mg^2+]o alone. The EC50 changes were plotted as a function of TNCA concentration and the curve was fit to the Hill equation. The activation of CaSR by the TNCA, functioning as a co-agonist with [Mg^2+]o, is indicated by the increasingly leftward-shifted EC50 for [Mg^2+]o as the concentration of TNCA increases (FIG. 6).

effect on [Mg^2+]o activation of CaSR: further potentiated
Structure (SMILES): N[C@@H](Cc1ccccc1)C(=O)O [Phe, phenylalanine]
